# Laboratory results taken from US10533015B1, “Opioid receptor antagonist prodrugs” (Nirsum Laboratories, Inc., priority 2019, dated 2020).
# Read-outs that look alike come from different tables or passages of the source.
# Columns and labels:
# [1] = for Equilibrium solubility (mg/mL) Water: temperatures N/A
# [2] = Plasma stability assay, rat plasma; type: in vitro ADME; conditions: 10 μM, 37° C.
# Method: Plasma stability determination of the test compounds in rat, dog, cynomolgus monkey and human plasma is performed using HPLC-MS. For rat, incubations are carried out in 96-well polypropylene plates in 5 aliquots of 70 μL each (one for each time point). […] Five time points are analyzed (0, 15, 120, 480 and 1440 min). For dog, monkey and human, test compounds (2 μM, final solvent concentration 1%) were also incubated at 37° C. and analyzed at five time points (0, 10, 30, 60 and 120 min). All incubations are performed in duplicates. The samples are analyzed by HPLC-MS. The percentage of parent compound remaining after incubation in plasma is determined.
# [3] = Polymorph screening of solid state drug substances; conditions: for Dry method and appearance: after stirring 50 °C 72 hours, dried solid; for XRPD results (Dried): dried solid after 50 °C 72 hours; for Visual observation 50° C. / Visual observation RT: target conc. 100 mg/ml
# [4] = heating temp. 40 °C, obs. temp. 40 °C
# [5] = heating temp. 60 °C, obs. temp. 25 °C
# [6] = heating temp. 60 °C, obs. temp. 40 °C
Structure (SMILES),% remaining at time point ([2]; 0 min) [%],% remaining at time point ([2]; 15 min) [%],% remaining at time point ([2]; 120 min) [%],% remaining at time point ([2]; 480 min) [%],% remaining at time point ([2]; 1440 min) [%],Dry method and appearance ([3]; Acetone),XRPD results (Dried) ([3]; Acetone),Visual observation 50° C. ([3]; Acetone),Visual observation RT ([3]; Acetone),Dry method and appearance ([3]; EtOAc),XRPD results (Dried) ([3]; EtOAc),Visual observation 50° C. ([3]; EtOAc),Visual observation RT ([3]; EtOAc),Dry method and appearance ([3]; Heptane),XRPD results (Dried) ([3]; Heptane),Visual observation 50° C. ([3]; Heptane),Visual observation RT ([3]; Heptane),Dry method and appearance ([3]; Isopropanol),XRPD results (Dried) ([3]; Isopropanol),Visual observation 50° C. ([3]; Isopropanol),further results
"CCCCCCCCCCCCOC(=O)Oc1ccc2c3c1O[C@H]1C(=O)CC[C@@]4(O)C(C2)N(CC2CC2)CC[C@]314 [Compound 11, (4aS,7aR,12bS)-3-(cyclopropylmethyl)-4a-hydroxy-7-oxo-2,3,4,4a,5,6,7,7a-octahydro-1H-4,12-methanobenzofuro[3,2-e]isoquinolin-9-yl dodecyl carbonate]",100,0.7,0.3,0.2,0,Evaporation/white powder,Pattern A,Clear,Slurry,Evaporation/white powder,Pattern A,Clear,Slurry,Evaporation/white powder,Pattern B,Clear,Clear,Evaporation/white powder,Pattern A,Clear,"Approximate Solubility (mg/mL) in Excipient: Cottonseed oil [1, 4]: >407 mg/mL; Approximate Solubility (mg/mL) in Excipient: Cottonseed oil [1, 5]: <51 mg/mL; Approximate Solubility (mg/mL) in Excipient: Ethanol [1, 4]: >218 mg/mL; Approximate Solubility (mg/mL) in Excipient: Sesame oil [1, 4]: >407 mg/mL; Approximate Solubility (mg/mL) in Excipient: Sesame oil [1, 5]: <50 mg/mL; Visual observation RT ([3]; Isopropanol): Slurry; Dry method and appearance ([3]; MTBE): Evaporation/white powder; XRPD results (Dried) ([3]; MTBE): Pattern A; Visual observation 50° C. ([3]; MTBE): Clear; Visual observation RT ([3]; MTBE): Clear"
"C=C1CC[C@@]2(O)C3Cc4ccc(OC(=O)CCCCCCCCCCCCCCCCCCCCC)c5c4[C@@]2(CCN3CC2CC2)[C@H]1O5 [Compound 14, (4aS,7aS,12bS)-3-(cyclopropylmethyl)-4a-hydroxy-7-methylene-2,3,4,4a,5,6,7,7a-octahydro-1H-4,12-methanobenzofuro[3,2-e]isoquinolin-9-yl docosanoate]",100,94,112,107,120,Evaporation/white powder,Pattern A,Clear,Slimy,Evaporation/white powder,Pattern A,Clear,Slurry,Centrifugation/white powder,Pattern B,Slurry,Slurry,Evaporation/white powder,Pattern A,Clear,"Approximate Solubility (mg/mL) in Excipient: Cottonseed oil [1, 4]: <50 mg/mL; Approximate Solubility (mg/mL) in Excipient: Cottonseed oil [1, 6]: <25 mg/mL; Approximate Solubility (mg/mL) in Excipient: Ethanol [1, 4]: 69 to 83 mg/mL; Approximate Solubility (mg/mL) in Excipient: Sesame oil [1, 4]: <51 mg/mL; Approximate Solubility (mg/mL) in Excipient: Sesame oil [1, 6]: <25 mg/mL; Equilibrium solubility (mg/mL) Water ([1]; compound after slurry in EtOAc): <0.0005 mg/mL; Equilibrium solubility (mg/mL) Water ([1]; compound after slurry in Heptane): <0.0005 mg/mL; Visual observation RT ([3]; Isopropanol): Clear; Dry method and appearance ([3]; MTBE): Evaporation/white powder; XRPD results (Dried) ([3]; MTBE): Pattern A; Visual observation 50° C. ([3]; MTBE): Clear; Visual observation RT ([3]; MTBE): Clear"
"C=C1CC[C@@]2(O)C3Cc4ccc(OC(=O)OCCCCCCCCCCCCCCCC)c5c4[C@@]2(CCN3CC2CC2)[C@H]1O5 [Compound 19, (4aS,7aS,12bS)-3-(cyclopropylmethyl)-4a-hydroxy-7-methylene-2,3,4,4a,5,6,7,7a-octahydro-1H-4,12-methanobenzofuro[3,2-e]isoquinolin-9-yl hexadecyl carbonate]",100,70.1,71.5,43.8,33.3,Evaporation/white powder,Pattern A,Clear,Slurry,Evaporation/white powder,Pattern A,Clear,Slurry,Evaporation/white powder,Pattern A,Clear,Slurry,Evaporation/white powder,Pattern A,Clear,"Approximate Solubility (mg/mL) in Excipient: Cottonseed oil [1, 4]: 67 to 80 mg/mL; Approximate Solubility (mg/mL) in Excipient: Ethanol [1, 4]: 27 to 42 mg/mL; Approximate Solubility (mg/mL) in Excipient: Sesame oil [1, 4]: 103 to 137 mg/mL; Visual observation RT ([3]; Isopropanol): Slurry; Dry method and appearance ([3]; MTBE): Evaporation/white powder; XRPD results (Dried) ([3]; MTBE): Pattern A; Visual observation 50° C. ([3]; MTBE): Clear; Visual observation RT ([3]; MTBE): Clear"
"CCCCCCCCCCCCCCCCOC(=O)Oc1ccc2c3c1O[C@H]1C(=O)CC[C@@]4(O)C(C2)N(CC2CC2)CC[C@]314 [Compound 21, (4aS,7aR,12bS)-3-(cyclopropylmethyl)-4a-hydroxy-7-oxo-2,3,4,4a,5,6,7,7a-octahydro-1H-4,12-methanobenzofuro[3,2-e]isoquinolin-9-yl hexadecyl carbonate]",100,73.5,68.3,59.8,40.9,Evaporation/white powder,Pattern A,Clear,Slurry,Evaporation/white powder,Pattern A,Clear,Slurry,Evaporation/white powder,Pattern A,Clear,Slurry,Evaporation/white powder,Pattern A,Clear,"Approximate Solubility (mg/mL) in Excipient: Cottonseed oil [1, 6]: 101 to 134.8 mg/mL; Approximate Solubility (mg/mL) in Excipient: Ethanol [1, 6]: 50 to 100 mg/mL; Approximate Solubility (mg/mL) in Excipient: Sesame oil [1, 6]: 101 to 134.5 mg/mL; Visual observation RT ([3]; Isopropanol): Slurry; Dry method and appearance ([3]; MTBE): Evaporation/white powder; XRPD results (Dried) ([3]; MTBE): Pattern A; Visual observation 50° C. ([3]; MTBE): Clear; Visual observation RT ([3]; MTBE): Clear"
